In the NIST ThermoML archive (doi:10.1021/je600515j):

Tests used:
[1] = relative permittivity at zero frequency (dimensionless); settings: 101.33 kPa, Liquid, dielectric analyzer
[2] = relative permittivity at zero frequency (dimensionless); xn = mol fraction of the nth substance listed; settings: 101 kPa, Liquid, dielectric analyzer

CN(CCO)CCO [N-methyldiethanolamine]
[1]
Settings | relative permittivity at zero frequency
303.15 K | 21.84
308.15 K | 21.33
313.15 K | 20.83
318.15 K | 20.32
323.15 K | 19.79
328.15 K | 19.28

OCCN(CCO)CCO [triethanolamine]
[1]
Settings | relative permittivity at zero frequency
303.15 K | 28.11
308.15 K | 27.41
313.15 K | 26.73
318.15 K | 26.07
323.15 K | 25.41
328.15 K | 24.8

CC(C)(N)CO [2-amino-2-methylpropan-1-ol]
[1]
Settings | relative permittivity at zero frequency
303.15 K | 20.59
308.15 K | 20.11
313.15 K | 19.69
318.15 K | 19.27
323.15 K | 18.88
328.15 K | 18.37

OCCNCCO [diethanolamine] + O
relative permittivity at zero frequency, [2]
Settings | 303.15 K | 308.15 K | 313.15 K | 318.15 K | 323.15 K | 328.15 K
x1 = 0.2 | 52.65 | 51.53 | 49.58 | 48.31 | 46.78 | 45.68
x1 = 0.4 | 39.11 | 38.06 | 36.95 | 35.81 | 34.68 | 33.73
x1 = 0.6 | 30.57 | 29.75 | 28.91 | 28.07 | 27.36 | 26.7
x1 = 0.8 | 26.95 | 26.41 | 25.86 | 25.42 | 24.81 | 24.13

CC(O)CNCC(C)O (stereo unspecified) [N-(2-hydroxypropyl)-2-hydroxy-1-propanamine]
[1]
Settings | relative permittivity at zero frequency
303.15 K | 13.87
308.15 K | 13.75
313.15 K | 13.62
318.15 K | 13.49
323.15 K | 13.36
328.15 K | 13.26

OCCNCCO [diethanolamine]
[1]
Settings | relative permittivity at zero frequency
303.15 K | 24.69
308.15 K | 24.3
313.15 K | 23.86
318.15 K | 23.28
323.15 K | 22.63
328.15 K | 22.13

CC(O)CO (stereo unspecified) [1,2-propanediol]
[1]
Settings | relative permittivity at zero frequency
303.15 K | 27.87
308.15 K | 27.13
313.15 K | 26.43
318.15 K | 25.76
323.15 K | 25.08
328.15 K | 24.57

OCCN(CCO)CCO [triethanolamine] + O
relative permittivity at zero frequency, [2]
Settings | 303.15 K | 308.15 K | 313.15 K | 318.15 K | 323.15 K | 328.15 K
x1 = 0.2 | 49.25 | 48.14 | 47.23 | 46.33 | 45.45 | 44.63
x1 = 0.4 | 36.34 | 35.44 | 34.53 | 33.6 | 32.73 | 31.93
x1 = 0.6 | 31.48 | 30.66 | 29.85 | 29.05 | 28.25 | 27.51
x1 = 0.8 | 29.67 | 28.92 | 28.17 | 27.43 | 26.69 | 26.04

CC(C)(N)CO [2-amino-2-methylpropan-1-ol] + O
relative permittivity at zero frequency, [2]
Settings | 303.15 K | 308.15 K | 313.15 K | 318.15 K | 323.15 K | 328.15 K
x1 = 0.2 | 48.24 | 47.33 | 46.43 | 45.46 | 44.31 | 43.13
x1 = 0.4 | 33.65 | 32.99 | 32.33 | 31.8 | 31.15 | 30.11
x1 = 0.6 | 26.63 | 26.17 | 25.65 | 25.14 | 24.95 | 24.37
x1 = 0.8 | 23.35 | 22.82 | 22.28 | 21.87 | 21.42 | 21.03

CN(CCO)CCO [N-methyldiethanolamine] + O
relative permittivity at zero frequency, [2]
Settings | 303.15 K | 308.15 K | 313.15 K | 318.15 K | 323.15 K | 328.15 K
x1 = 0.2 | 48.77 | 47.54 | 46.36 | 45.14 | 43.98 | 42.68
x1 = 0.4 | 33.92 | 33.09 | 32.16 | 31.25 | 30.37 | 29.41
x1 = 0.6 | 26.68 | 26.03 | 25.4 | 24.69 | 23.96 | 23.21
x1 = 0.8 | 23.44 | 22.86 | 22.31 | 21.77 | 21.15 | 20.56

CC(O)CNCC(C)O (stereo unspecified) [N-(2-hydroxypropyl)-2-hydroxy-1-propanamine] + O
relative permittivity at zero frequency, [2]
Settings | 303.15 K | 308.15 K | 313.15 K | 318.15 K | 323.15 K | 328.15 K
x1 = 0.2 | 41.34 | 40.27 | 39.35 | 38.46 | 37.74 | 37.16
x1 = 0.4 | 24.52 | 24 | 23.48 | 23 | 22.52 | 22.19
x1 = 0.6 | 18.46 | 18.15 | 17.84 | 17.53 | 17.2 | 16.97
x1 = 0.8 | 16.65 | 16.45 | 16.26 | 16.05 | 15.83 | 15.66
